Test results as given in patent publication US8952024B2, “Herbicidal pyrimidone derivatives” (E I du Pont de Nemours and Company, priority 2009, dated 2015).

Tests used:
Assay in all cases: Test B pre-/postemergence plant response
Assay type in all cases: in vivo
[1] = tested on: yellow nutsedge (Cyperus esculentus)
In short: (§1)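 Visual ratings on a 0–100 scale (100 = complete control) were made versus untreated controls 13–15 days after treatment in a greenhouse. Compounds in surfactant-containing non-phytotoxic solvent were applied preemergence to seeds in loam–sand blend or postemergence to 1- to 4-leaf plants (2–18 cm).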

soybean (Glycine max) = tested on: soybean (Glycine max)
In short: as §1

[2] = tested on: giant foxtail (Setaria faberii)
In short: as §1

[3] = tested on: goosegrass (Eleusine indica)
In short: as §1

[4] = tested on: cocklebur (Xanthium strumarium)
In short: as §1

[5] = tested on: woolly cupgrass (Eriochloa villosa)
In short: as §1

[6] = tested on: morningglory (Ipomoea coccinea)
In short: as §1

kochia (Kochia scoparia) = tested on: kochia (Kochia scoparia)
In short: as §1

corn (Zea mays) = tested on: corn (Zea mays)
In short: as §1

wild oat (Avena fatua) = tested on: wild oat (Avena fatua)
In short: as §1

[7] = tested on: johnsongrass (Sorghum halepense)
In short: as §1

[8] = tested on: green foxtail (Setaria viridis)
In short: as §1

[9] = tested on: large crabgrass (Digitaria sanguinalis)
In short: as §1

[10] = tested on: downy bromegrass (Bromus tectorum)
In short: as §1

[11] = tested on: Surinam grass (Brachiaria decumbens)
In short: as §1

[12] = tested on: velvetleaf (Abutilon theophrasti)
In short: as §1

[13] = tested on: blackgrass (Alopecurus myosuroides)
In short: as §1

[14] = 31 g ai/ha, postemergence, scale 0 to 100, 0 is no effect, 100 is complete control
[15] = 250 g ai/ha, Preemergence, 0 to 100 scale
[16] = Postemergence, 62 g ai/ha, scale 0 (no effect) to 100 (complete control), 13 to 15 days
[17] = Postemergence, 125 g ai/ha, visual rating after 13 to 15 days, scale 0 (no effect) to 100 (complete control)
[18] = Preemergence, 31 g ai/ha, scale 0 to 100 (0 no effect, 100 complete control)
[19] = Preemergence, 125 g ai/ha, 0 to 100 scale
[20] = Postemergence, 250 g ai/ha, scale 0 to 100
[21] = Preemergence, 62 g ai/ha, scale 0 to 100, 0 no effect, 100 complete control

Structure (SMILES): CCn1c(-c2ccccc2)ncc(C(=O)C2=C(O)CCCC2=O)c1=O [Compound 49]
- Plant response rating, Nutsedge, Yellow [1, 14]: 65
- Plant response rating, Nutsedge, Yellow [1, 15]: 90
- Plant response rating, Nutsedge, Yellow [1, 16]: 65
- Plant response rating, Nutsedge, Yellow [1, 17]: 70
- Plant response rating, Nutsedge, Yellow [1, 18]: 60
- Nutsedge, Yellow plant response rating [1, 19]: 85
- Plant response rating, Soybean (soybean (Glycine max); [14]): 55
- Plant response rating, Soybean (soybean (Glycine max); [15]): 85
- Plant response rating, Soybean (soybean (Glycine max); [16]): 65
- Plant response rating, Soybean (soybean (Glycine max); [17]): 85
- Plant response rating, Soybean (soybean (Glycine max); [18]): 0
- Soybean plant response rating (soybean (Glycine max); [19]): 85
- Plant response rating, Foxtail, Giant [2, 14]: 45
- Plant response rating, Foxtail, Giant [2, 15]: 45
- Plant response rating, Foxtail, Giant [2, 16]: 60
- Plant response rating, Foxtail, Giant [2, 17]: 70
- Foxtail, Giant plant response rating [2, 20]: 75
- Plant response rating, Foxtail, Giant [2, 18]: 0
- Plant response rating, Foxtail, Giant [2, 21]: 0
- Foxtail, Giant plant response rating [2, 19]: 20
- Plant response rating, Goosegrass [3, 14]: 65
- Plant response rating, Goosegrass [3, 15]: 100
- Plant response rating, Goosegrass [3, 16]: 70
- Plant response rating, Goosegrass [3, 17]: 70
- Goosegrass plant response rating [3, 20]: 70
- Plant response rating, Goosegrass [3, 18]: 20
- Goosegrass plant response rating [3, 19]: 98
- Plant response rating, Cocklebur [4, 14]: 65
- Plant response rating, Cocklebur [4, 15]: 55
- Plant response rating, Cocklebur [4, 16]: 80
- Plant response rating, Cocklebur [4, 17]: 80
- Cocklebur plant response rating [4, 20]: 85
- Plant response rating, Cocklebur [4, 18]: 0
- Plant response rating, Cocklebur [4, 21]: 20
- Cocklebur plant response rating [4, 19]: 45
- Plant response rating, Cupgrass, Woolly [5, 14]: 50
- Plant response rating, Cupgrass, Woolly [5, 15]: 20
- Plant response rating, Cupgrass, Woolly [5, 16]: 50
- Plant response rating, Cupgrass, Woolly [5, 17]: 55
- Cupgrass, Woolly plant response rating [5, 20]: 55
- Plant response rating, Cupgrass, Woolly [5, 18]: 0
- Plant response rating, Cupgrass, Woolly [5, 21]: 0
- Cupgrass, Woolly plant response rating [5, 19]: 0
- Plant response rating, Morningglory [6, 14]: 65
- Plant response rating, Morningglory [6, 15]: 85
- Plant response rating, Morningglory [6, 16]: 80
- Plant response rating, Morningglory [6, 17]: 80
- Plant response rating, Morningglory [6, 18]: 45
- Plant response rating, Morningglory [6, 21]: 80
- Morningglory plant response rating [6, 19]: 80
- Plant response rating, Kochia (kochia (Kochia scoparia); [14]): 55
- Plant response rating, Kochia (kochia (Kochia scoparia); [16]): 65
- Plant response rating, Kochia (kochia (Kochia scoparia); [17]): 80
- Kochia plant response rating (kochia (Kochia scoparia); [20]): 90
- Plant response rating, Corn (corn (Zea mays); [14]): 5
- Plant response rating, Corn (corn (Zea mays); [15]): 0
- Plant response rating, Corn (corn (Zea mays); [16]): 5
- Plant response rating, Corn (corn (Zea mays); [17]): 5
- Corn plant response rating (corn (Zea mays); [20]): 15
- Plant response rating, Corn (corn (Zea mays); [18]): 0
- Plant response rating, Corn (corn (Zea mays); [21]): 0
- Corn plant response rating (corn (Zea mays); [19]): 0
- Plant response rating, Oat, Wild (wild oat (Avena fatua); [14]): 0
- Plant response rating, Oat, Wild (wild oat (Avena fatua); [15]): 0
- Plant response rating, Oat, Wild (wild oat (Avena fatua); [16]): 5
- Plant response rating, Oat, Wild (wild oat (Avena fatua); [17]): 5
- Plant response rating, Oat, Wild (wild oat (Avena fatua); [18]): 0
- Oat, Wild plant response rating (wild oat (Avena fatua); [19]): 0
- Plant response rating, Johnsongrass [7, 14]: 0
- Plant response rating, Johnsongrass [7, 15]: 10
- Plant response rating, Johnsongrass [7, 16]: 0
- Plant response rating, Johnsongrass [7, 17]: 10
- Johnsongrass plant response rating [7, 20]: 10
- Plant response rating, Johnsongrass [7, 18]: 0
- Plant response rating, Johnsongrass [7, 21]: 0
- Johnsongrass plant response rating [7, 19]: 0
- Plant response rating, Foxtail, Green [8, 14]: 50
- Plant response rating, Foxtail, Green [8, 15]: 30
- Plant response rating, Foxtail, Green [8, 16]: 50
- Plant response rating, Foxtail, Green [8, 17]: 75
- Foxtail, Green plant response rating [8, 20]: 90
- Plant response rating, Foxtail, Green [8, 18]: 0
- Plant response rating, Foxtail, Green [8, 21]: 0
- Foxtail, Green plant response rating [8, 19]: 5
- Plant response rating, Crabgrass, Large [9, 14]: 75
- Plant response rating, Crabgrass, Large [9, 15]: 100
- Plant response rating, Crabgrass, Large [9, 16]: 75
- Plant response rating, Crabgrass, Large [9, 17]: 80
- Crabgrass, Large plant response rating [9, 20]: 85
- Plant response rating, Crabgrass, Large [9, 18]: 75
- Plant response rating, Crabgrass, Large [9, 21]: 95
- Crabgrass, Large plant response rating [9, 19]: 98
- Plant response rating, Bromegrass, Downy [10, 14]: 0
- Plant response rating, Bromegrass, Downy [10, 16]: 0
- Plant response rating, Bromegrass, Downy [10, 17]: 0
- Bromegrass, Downy plant response rating [10, 20]: 5
- Plant response rating, Bromegrass, Downy [10, 18]: 0
- Plant response rating, Bromegrass, Downy [10, 21]: 0
- Bromegrass, Downy plant response rating [10, 19]: 0
- Plant response rating, Surinam Grass [11, 14]: 15
- Plant response rating, Surinam Grass [11, 15]: 85
- Plant response rating, Surinam Grass [11, 16]: 30
- Plant response rating, Surinam Grass [11, 17]: 55
- Plant response rating, Surinam Grass [11, 18]: 0
- Surinam Grass plant response rating [11, 19]: 75
- Plant response rating, Velvetleaf [12, 14]: 90
- Plant response rating, Velvetleaf [12, 15]: 100
- Plant response rating, Velvetleaf [12, 16]: 95
- Plant response rating, Velvetleaf [12, 17]: 98
- Plant response rating, Velvetleaf [12, 18]: 95
- Velvetleaf plant response rating [12, 19]: 100
- Plant response rating, Blackgrass [13, 14]: 0
- Plant response rating, Blackgrass [13, 15]: 0
- Plant response rating, Blackgrass [13, 16]: 0
- Plant response rating, Blackgrass [13, 17]: 0
- Blackgrass plant response rating [13, 20]: 30
- Plant response rating, Blackgrass [13, 18]: 0
- Plant response rating, Blackgrass [13, 21]: 0
- Blackgrass plant response rating [13, 19]: 0
